Laboratory results reported in patent US20160108039A1, “TRIAZOLOPYRIDINES AS THROMBIN INHIBITORS FOR THE TREATMENT OF THROMBOEMBOLIC DISEASES” (BAYER PHARMA AKTIENGESELLSCHAFT, priority 2013, published 2016).

Columns and labels:
[1] = biological target: T1, thrombin (Homo sapiens, UniProt P00734); assay: Thrombin-inhibitory activity in plasma samples (ecarin-activated); type: biochemical; conditions: citrate plasma, ecarin activation, fluorogenic thrombin substrate; read at about 70% of maximum signal (about 12 min); in some cases means
Procedure: To determine the inhibition of thrombin in plasma samples, plasma prothrombinase is activated by ecarin. Thrombin activity and/or its inhibition by potential inhibitors is/are then measured fluorescently by addition of a substrate.
The substances to be tested are dissolved in various concentrations in dimethyl sulphoxide and diluted with water. In white 96-well flat-bottomed plates, 20 μl of substance dilution are mixed with 20 μl of ecarin solution (ecarin reagent, from Sigma E-0504, final concentration 20 mU per reaction) in Ca buffer (200 mM Hepes+560 mM sodium chloride+10 mM calcium chloride+0.4% PEG) or with 20 μl of Ca buffer (as unstimulated control). Furthermore, 20 μl of fluorogenic thrombin substrate (from Bachem 1-1120, final concentration 50 μmol/l) and 20 μl of citrate plasma (from Octapharma) are added, and the mixture is homogenized well. The plate is measured in a SpectraFluorplus Reader using a 360 nm excitation filter and a 465 nm emission filter every minute over 20 minutes. […] Representative activity data from this test are given in Table 2 below (in some cases as means of individual determinations): […]

[2] = biological target: T1, thrombin; assay: Measurement of the thrombin inhibition in buffer; type: biochemical; conditions: human thrombin 0.06 nmol/l in Tris buffer pH 7.4, 22° C., substrate Boc-Asp(OBzl)-Pro-Arg-AMC; in some cases means of individual determinations
Procedure: To determine the thrombin inhibition of the substances listed above, a biochemical test system is constructed in which the conversion of a thrombin substrate is used for determining the enzymatic activity of human thrombin. Here, thrombin cleaves aminomethylcoumarin, which is measured fluorescently, from the peptic substrate. The determinations are carried out in microtitre plates.
Substances to be tested are dissolved in various concentrations in dimethyl sulphoxide and incubated for 15 min with human thrombin (0.06 nmol/l dissolved in 50 mmol/l of Tris buffer [C,C,C-tris(hydroxymethyl)aminomethane], 100 mmol/l of sodium chloride, 0.1% BSA [bovine serum albumin], pH 7.4) at 22° C. The substrate (5 μmol/l Boc-Asp(OBzl)-Pro-Arg-AMC from Bachem) is then added. After 30 min of incubation, the sample is excited at a wavelength of 360 nm and the emission is measured at 460 nm. The measured emissions of the test mixtures with test substance are compared to the control mixtures without test substance (only dimethyl sulphoxide instead of test substance in dimethyl sulphoxide) and IC50 values are calculated from the concentration/activity relationships. Representative activity data from this test are given in Table 1 below (in some cases as means of individual determinations): […]

Row | SMILES | IC50 [1] [nM] | IC50 [2] [nM]
1 | COCC1COC(C)(C)CN1C(=O)c1cc(OC)c2nc(NCc3cccc(Cl)c3)nn2c1 (racemic) [Example 11, {2-[(3-Chlorobenzyl)amino]-8-methoxy[1,2,4]triazolo[1,5-a]pyridin-6-yl}[5-(methoxymethyl)-2,2-dimethylmorpholin-4-yl]methanone] | 64 | 63
2 | COc1cc(C(=O)N2CC(C)OCC2CCO)cn2nc(NCc3cccc(Cl)c3)nc12 (racemic) [Example 15, {2-[(3-Chlorobenzyl)amino]-8-methoxy[1,2,4]triazolo[1,5-a]pyridin-6-yl}[5-(2-hydroxyethyl)-2-methylmorpholin-4-yl]methanone] | 75 | 53
3 | COc1cc(C(=O)N2CC(C)OCC2C2CC(O)C2)cn2nc(NCc3cccc(Cl)c3)nc12 (single isomer, unassigned) [Example 3, {2-[(3-Chlorobenzyl)amino]-8-methoxy[1,2,4]triazolo[1,5-a]pyridin-6-yl}[5-(3-hydroxycyclobutyl)-2-methylmorpholin-4-yl]methanone] | 70 | 70
4 | COc1cc(C(=O)N2CC(C)OC[C@H]2C)cn2nc(NC(CF)c3cccc(Cl)c3)nc12 (single isomer, unassigned) [Example 5] | 87 | –
5 | COc1cc(C(=O)N2CC(C)(C)OCC2(C)CO)cn2nc(NCc3cccc(Cl)c3)nc12 (single isomer, unassigned) [Example 9, {2-[(3-Chlorobenzyl)amino]-8-methoxy[1,2,4]triazolo[1,5-a]pyridin-6-yl}[5-(hydroxymethyl)-2,2,5-trimethylmorpholin-4-yl]methanone] | 79 | 55
6 | COc1cc(C(=O)N2CC(C)(C)OCC2CF)cn2nc(NCc3cccc(Cl)c3)nc12 (single isomer, unassigned) [Example 14, {2-[(3-Chlorobenzyl)amino]-8-methoxy[1,2,4]triazolo[1,5-a]pyridin-6-yl}[5-(fluoromethyl)-2,2-dimethylmorpholin-4-yl]methanone] | 57 | 24
7 | COc1cc(C(=O)N2CC(C)OCC2CCO)cn2nc(NCc3cccc(Cl)c3)nc12 (single isomer, unassigned) [Example 16, {2-[(3-Chlorobenzyl)amino]-8-methoxy[1,2,4]triazolo[1,5-a]pyridin-6-yl}[5-(2-hydroxyethyl)-2-methylmorpholin-4-yl]methanone] | 77 | 52
8 | COc1cc(C(=O)N2CC(C)OCC2CCO)cn2nc(NCc3cccc(Cl)c3)nc12 (single isomer, unassigned) [Example 17, {2-[(3-Chlorobenzyl)amino]-8-methoxy[1,2,4]triazolo[1,5-a]pyridin-6-yl}[5-(2-hydroxyethyl)-2-methylmorpholin-4-yl]methanone] | 119 | 95
9 | COc1cc(C(=O)N2CC(C)OCC23CC(O)C3)cn2nc(NCc3cccc(Cl)c3)nc12 (single isomer, unassigned) [Example 20, {2-[(3-Chlorobenzyl)amino]-8-methoxy[1,2,4]triazolo[1,5-a]pyridin-6-yl}[(cis)-2-hydroxy-7-methyl-8-oxa-5-azaspiro[3.5]non-5-yl]methanone] | 70 | 35
10 | COc1cc(C(=O)N2CC(C)OCC23CC(O)C3)cn2nc(NCc3cccc(Cl)c3)nc12 (single isomer, unassigned) [Example 21, {2-[(3-Chlorobenzyl)amino]-8-methoxy[1,2,4]triazolo[1,5-a]pyridin-6-yl}[(trans)-2-hydroxy-7-methyl-8-oxa-5-azaspiro[3.5]non-5-yl]methanone] | 67 | 43
11 | COc1cc(C(=O)N2CC(C)OCC23CC(O)C3)cn2nc(NC(CF)c3cccc(Cl)c3)nc12 (single isomer, unassigned) [Example 22, (2-{[1-(3-Chlorophenyl)-2-fluoroethyl]amino}-8-methoxy[1,2,4]triazolo[1,5-a]pyridin-6-yl)[(cis)-2-hydroxy-7-methyl-8-oxa-5-azaspiro[3.5]non-5-yl]methanone] | 86 | 26
12 | COc1cc(C(=O)N2CC(C)(CC(C)O)OCC2CF)cn2nc(NCc3cccc(Cl)c3)nc12 (single isomer, unassigned) [Example 57, {2-[(3-Chlorobenzyl)amino]-8-methoxy[1,2,4]triazolo[1,5-a]pyridin-6-yl}[5-(fluoromethyl)-2-(2-hydroxypropyl)-2-methylmorpholin-4-yl]methanone] | – | 1000

Further molecules by falling IC50 [1], results first:

Row | IC50 [1] [nM] | IC50 [2] [nM] | SMILES
13 | 56 | 35 | COc1cc(C(=O)N2CC(C)(C)OCC2CF)cn2nc(NCc3cccc(Cl)c3)nc12 (racemic) [Example 12, {2-[(3-Chlorobenzyl)amino]-8-methoxy[1,2,4]triazolo[1,5-a]pyridin-6-yl}[5-(fluoromethyl)-2,2-dimethylmorpholin-4-yl]methanone]
14 | 54 | 37 | COc1cc(C(=O)N2CC(C)OCC2CC(C)(C)O)cn2nc(NCc3cccc(Cl)c3)nc12 (racemic) [Example 42, {2-[(3-Chlorobenzyl)amino]-8-methoxy[1,2,4]triazolo[1,5-a]pyridin-6-yl}[5-(2-hydroxy-2-methylpropyl)-2-methylmorpholin-4-yl]methanone]
15 | 41 | 39 | COc1cc(C(=O)N2CC(C)(C)OCC2(C)CO)cn2nc(NCc3cccc(Cl)c3)nc12 (single isomer, unassigned) [Example 10, {2-[(3-Chlorobenzyl)amino]-8-methoxy[1,2,4]triazolo[1,5-a]pyridin-6-yl}[5-(hydroxymethyl)-2,2,5-trimethylmorpholin-4-yl]methanone]
16 | 39 | – | [2H]C([2H])(C)O[C@@H]1CC(CO)N(C(=O)c2cc(OC)c3nc(NCc4cccc(Cl)c4)nn3c2)C1 (stereo partly drawn) [Example 73, {2-[(3-Chlorobenzyl)amino]-8-methoxy[1,2,4]triazolo[1,5-a]pyridin-6-yl}[(4R)-4-[(1,1-^2H2)ethyloxy]-2-(hydroxymethyl)pyrrolidin-1-yl]methanone]
17 | 33 | 34 | COc1cc(C(=O)N2CC3CCN3C(=O)C2C)cn2nc(N[C@H](C)c3cccc(Cl)c3)nc12 (single isomer, unassigned) [Example 1]
18 | 29 | 20 | COc1cc(C(=O)N2CC(C)(C)OCC2(C)CO)cn2nc(NCc3cccc(Cl)c3)nc12 (racemic) [Example 8, {2-[(3-Chlorobenzyl)amino]-8-methoxy[1,2,4]triazolo[1,5-a]pyridin-6-yl}[5-(hydroxymethyl)-2,2,5-trimethylmorpholin-4-yl]methanone]
19 | 25 | 8.7 | COc1cc(C(=O)N2CC(C)(CCO)OC[C@H]2C)cn2nc(NCc3cccc(Cl)c3)nc12 (single isomer, unassigned) [Example 6]
20 | 23 | 9.4 | COc1cc(C(=O)N2CC(C)OCC2C2CC(O)C2)cn2nc(NCc3cccc(Cl)c3)nc12 (single isomer, unassigned) [Example 4, {2-[(3-Chlorobenzyl)amino]-8-methoxy[1,2,4]triazolo[1,5-a]pyridin-6-yl}[5-(3-hydroxycyclobutyl)-2-methylmorpholin-4-yl]methanone]
21 | 15 | 11 | COc1cc(C(=O)N2CC(C)(CCO)OCC2(C)C)cn2nc(NCc3cccc(Cl)c3)nc12 (racemic) [Example 31, {2-[(3-Chlorobenzyl)amino]-8-methoxy[1,2,4]triazolo[1,5-a]pyridin-6-yl}[2-(2-hydroxyethyl)-2,5,5-trimethylmorpholin-4-yl]methanone]
22 | 15 | 27 | COc1cc(C(=O)N2CC(C)OCC2CCO)cn2nc(NC(CF)c3cccc(Cl)c3)nc12 (single isomer, unassigned) [Example 18, (2-{[1-(3-Chlorophenyl)-2-fluoroethyl]amino}-8-methoxy[1,2,4]triazolo[1,5-a]pyridin-6-yl) [5-(2-hydroxyethyl)-2-methylmorpholin-4-yl]methanone]
23 | 10 | 11 | COc1cc(C(=O)N2CC(C)OCC2CCO)cn2nc(NC(CF)c3cccc(Cl)c3)nc12 (single isomer, unassigned) [Example 19, (2-{[1-(3-Chlorophenyl)-2-fluoroethyl]amino}-8-methoxy[1,2,4]triazolo[1,5-a]pyridin-6-yl) [5-(2-hydroxyethyl)-2-methylmorpholin-4-yl]methanone]
